Measured values as given in patent US5151502A, “Method for solubilizing membrane receptor proteins” (E. R. Squibb & Sons, Inc., priority 1991, dated 1992).

Key:
membrane AII receptor = molecular target: T1, membrane AII receptor (Bos taurus, UniProt P25104); experiment: [125I]-SI-AII radioligand binding, bovine adrenal microsomal membranes (BAMM)
T1 construct: Aliquots (5 mg/ml) of the bovine adrenal microsomal membranes (BAMM) were stored; from tissue; host or cells: bovine adrenal, microsomal membranes
T1 sequence (P25104 1-359): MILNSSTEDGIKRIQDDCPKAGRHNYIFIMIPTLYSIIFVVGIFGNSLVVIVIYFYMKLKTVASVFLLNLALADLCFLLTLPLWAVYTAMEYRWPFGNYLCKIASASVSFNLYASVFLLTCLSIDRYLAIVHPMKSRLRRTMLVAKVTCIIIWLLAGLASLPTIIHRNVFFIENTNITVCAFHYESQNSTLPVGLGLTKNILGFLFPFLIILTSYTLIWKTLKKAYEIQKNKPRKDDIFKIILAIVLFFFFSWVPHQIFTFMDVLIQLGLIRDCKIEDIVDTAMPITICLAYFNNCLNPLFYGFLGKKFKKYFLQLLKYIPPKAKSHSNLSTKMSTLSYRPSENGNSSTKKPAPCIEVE
Description: All the procedures were performed at 4° C. unless otherwise indicated. Bovine adrenals were cleaned of connective tissue and fat and were minced in 10 volumes of homogenization buffer (10 mM Tris, pH 7.4 at 4° C. containing 0.25M sucrose and 1 mM ethylenediaminetetraacetic acid). The minced tissue was homogenized using a Brinkmann polytron homogenizer (five ten second bursts at setting #8). The homogenate was centrifuged at 3,000×g (5,000 rpm) in a Sorvall SS34 rotor) for 10 minutes and the supernatant filtered through 3 layers of cheesecloth. The filtrate was centrifuged at 12,000×g (10,000 rpm in a Sorvall SS34 rotor) for 15 minutes. […]

soluble AII receptor = molecular target: T2, soluble AII receptor (Bos taurus, UniProt P25104); experiment: [125I]-SI-AII radioligand binding, CHAPS-solubilized SM2-treated BAMM; set-up: species or system bovine; details: for Inhibition of [125I]-SI-AII binding (in words): competition experiments
T2 construct: from tissue; host or cells: bovine adrenal microsomal membranes, solubilized with CHAPS and treated with SM2 beads
T2 sequence (P25104 1-359): T1 sequence (P25104 1-359)
Description: (§1) All procedures were performed at 4° C. unless otherwise noted. Solubilization of specific binding activity was carried out by incubation of BAMM with 5 mM CHAPS. […] The solubilized membranes were centrifuged at 176,000×g (50,000 rpm in a Beckman 80Ti rotor) for 1 hour. The soluble BAMM preparation was stored at […] Prior to assay, soluble BAMM protein was filtered through a 0.22 μm filter and treated with SM2 beads. SM2 treatment proceeded with the addition of 1.1 g (w/v) of the beads and incubation for 1 to 2 hours with constant rotation. The beads were, removed under air pressure. Residual beads were removed from solution by microcentrifugation at 11,000×g (14,000 rpm.) for 15 minutes.
Assays were conducted in 1.2 ml tubes in a total assay volume of 200 μl. The incubation mixture contained 0.1 to 0.2 nM [^125 I]-SI-AII and incubation buffer (50 mM Tris, pH 7.4 at 4° C., 150 mM sodium chloride, 0.1% bovine serum albumin, 0.24 TI units/ml aprotinin, 0.1 mg/ml 1,10-phenanthroline). The binding reaction was initiated by the addition of 20 to 100 μg of BAMM or soluble BAMM diluted in incubation buffer. Binding proceeded at 37° C. for 2 hours with constant agitation. Reactions were terminated and bound and free radioligand separated by rapid filtration over double-thickness glass-fiber filters which had been presoaked in 0.3% polyethyleneimine in 50 mM Tris (pH 7.4) utilizing a Tomtec™96-well cell harvester set at four pulse washes. Filters were counted in a RIASTAT gamma counter or washed twice, microwave-dried, and counted in a Pharmacia 1205 Beta Plate flatbed scintillation counter in the presence of a dry scintillant (Pharmacia MeltiLex Scintillator Sheets™). Dissociation constants and slope factors were calculated according to Cheng and Prusoff (Biochem. Pharmacol. 22, 3099-3109; 1973) and Hill (J. Physiol. 40, 109-224; 1910), respectively. analysis of saturation binding data was performed using nonlinear regression least-square curve fitting to the nontransformed data or by Scathard transformation (Ann. N.Y.Acad. Sci., 51, 660672;1949).

AII receptor = experiment: Recovery of solubilized [125I]-SI-AII binding activity from BAMM; set-up: species or system bovine; details: DTNB 0.1 mM added to BAMM before solubilization; means ± standard errors, n = 4
Description: as §1
Assays were conducted in 1.2 ml tubes in a total assay volume of 200 μl. […] Filters were counted in a RIASTAT gamma counter or washed twice, microwave-dried, and counted in a Pharmacia 1205 Beta Plate flatbed scintillation counter in the presence of a dry scintillant (Pharmacia MeltiLex Scintillator Sheets™). Dissociation constants and slope factors were calculated according to Cheng and Prusoff (Biochem. Pharmacol. 22, 3099-3109; 1973) and Hill (J. Physiol. 40, 109-224; 1910), respectively. analysis of saturation binding data was performed using nonlinear regression least-square curve fitting to the nontransformed data or by Scathard transformation (Ann. N.Y.Acad. Sci., 51, 660672;1949).

Structure (SMILES): CCCCc1nc(Cl)c(CO)n1Cc1ccc(-c2ccccc2-c2nn[nH]n2)cc1 [DuP 753]
- Kd (membrane AII receptor): 0.202 ± 0.022 µM
- Slope Factor (membrane AII receptor; BAMM, means ± SEM, n = 3 to 5): 0.91 ± 0.03
- Kd (soluble AII receptor): 2.54 µM
- Inhibition of [125I]-SI-AII binding (in words) (soluble AII receptor; SM2-treated soluble receptors): complete
- Slope Factor (soluble AII receptor; Soluble preparation, means ± SEM, n = 3 to 5): 0.51 ± 0.05

Structure (SMILES): O[C@H](CS)[C@H](O)CS (racemic) [DTT, dithiothreitol]
- inhibition at 5000 µM (soluble AII receptor): ~90%
- IC50 (soluble AII receptor; read-out: DTT concentration giving 50% reduction in ligand activity): 500 to 1000 µM

Structure (SMILES): O=C(O)c1cc(SSc2ccc([N+](=O)[O-])c(C(=O)O)c2)ccc1[N+](=O)[O-] [DTNB, dithionitrobenzoic acid]
- % recovery of solubilized AII receptor (AII receptor): 11.5 ± 1.5%

Structure (SMILES): Cc1cc(Cn2cnc3c2CC(C(=O)O)N(C(=O)C(c2ccccc2)c2ccccc2)C3)ccc1N (stereo not shown) [PD123177]
- Inhibition of [125I]-SI-AII binding (in words) (soluble AII receptor; SM2-treated soluble receptors): negligible
- Ki (soluble AII receptor; SM2-treated soluble receptors, read-out: inhibition constant): > 100 µM
